Measured values as given in PubChem BioAssay AID179 (DTP/NCI, 2004).
Where “and” joins values, the source holds several entries; their conditions need not be identical. Equal values may be shown once. Calls of active or inactive are those of the source.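 The calls were made as follows: active = compounds giving half or more protection of infected cells from virus-caused growth loss, again on retest; inactive = the rest.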

System: CEM cells HIV-1 protection, formazan growth assay
Assay: NCI AIDS Antiviral Assay
Details: for IC50: measured here: growth of uninfected CEM cells
Summary of the method: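 Protection of CEM cells against HIV-1 was scored from cell growth (soluble formazan) across five concentrations, with parallel uninfected cells. Lack of protection may reflect toxicity.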

Row | SMILES | EC50 [µM] | IC50 | outcome
1 | Cc1ccc(NCC(=O)N2CC(=O)Nc3ccccc32)cc1 | > 123 | > 123 µM | 
2 | COC(=O)C1=C(C)N(NC(=O)c2cccc(Cl)c2)C(C)(O)C12CCOC2=O (stereo not given) | > 631 | 275 µM | 
3 | CC(=O)Nc1ccc2cc(C)c(=O)[nH]c2n1 | > 200 | > 200 µM | 
4 | O=c1[nH]c2c(cnn2-c2ccccc2)c(=O)n1OS(=O)(=O)c1ccccc1 | > 200 | > 200 µM | 
5 | NC(=O)c1nnsc1NC=O | > 200 | > 200 µM | 
6 | CCC1(c2ccc(N3C(=O)c4cccc5cc([N+](=O)[O-])cc(c45)C3=O)cc2)CCC(=O)NC1=O (stereo not given) | > 151 | 13.5 µM | 
7 | CCOC(=O)/C=C/C(=O)O/C=C/[N+](=O)[O-] | 182 | > 200 µM | 
8 | CCCCCCCCCCCCCCCCCCSCC(COP(=O)(O)OP(=O)(O)OCC1OC(n2ccc(=O)[nH]c2=O)CC1N=[N+]=[N-])OC(=O)CCCCCCCCCCCCCCC (stereo not given) | > 209 | 186 µM | 
9 | C#CCOCC12C=CC(O1)C1COC(=O)C12 (stereo not given) | > 200 | > 200 µM | 
10 | O=C1N(c2ccccc2)SN2C3C=CC(C4CC43)N12 (stereo not given) | > 182 | > 182 µM | 
11 | CC1(c2nc3ccccc3[nH]2)CCC(C#N)C(C)(C)O1 (stereo not given) | > 200 | > 200 µM | 
12 | ClC1(Cl)C2(Cl)C3(Cl)C4C2(Cl)C2(Cl)C4(Cl)C3(Cl)C12Cl (stereo not given) | > 200 | 33.1 µM | 
13 | CCCCN(CCCC)CC(=O)Nc1ccc(C(=O)OCC(C)C)cc1 | > 200 | > 200 µM | 
14 | CC(=O)OC/C=C(/C)C[P+](c1ccccc1)(c1ccccc1)c1ccccc1 | > 200 | 0.955 µM | 
15 | CC(C)CCC1(CCSC#N)C(=O)NC(=O)NC1=O | > 200 | 37.2 µM | 
16 | O=C(c1cccs1)N1CCc2ccccc2C1 | > 162 | 107 µM | 
17 | CN(C)c1ccc(N=Nc2cccc3ccoc23)cc1 |  |  | inactive
18 | O=C(O)CCC(NC(=O)c1ccc(CNc2nc3cc(C(F)(F)F)ccc3nc2C(=O)O)cc1)C(=O)O (stereo not given) | > 200 | > 200 µM | 
19 | Cc1c(CN2CCOCC2)cc(C(C)C)c(O)c1CN1CCOCC1 | > 200 | > 200 µM | 
20 | CC1(C)Nc2cccc3c(N=Nc4ccc(N=Nc5ccccc5)c5ccccc45)ccc(c23)N1 | > 200 | 26.3 µM | 
21 | O=C(O)OC12CCCCCC1C(=O)C1CCCCC12 (stereo not given) | > 200 | > 200 µM | 
22 | Cc1cc2c(=O)cc(-c3cccs3)oc2c(C(=O)O)c1C |  |  | inactive
23 | CCCC(=O)Oc1c(Cl)cc(C(=CCC[C@H]2CC[C@@]3(C)[C@@H](CC[C@@H]4[C@@H]3CC[C@]3(C)[C@@H]([C@H](C)CCCC(C)C)CC[C@@H]43)C2)c2cc(Cl)c(OC(=O)CCC)c(C(=O)O)c2)cc1C(=O)O | 79.4 | > 100 µM | 

Row | SMILES | EC50 [µM] | IC50 | outcome
24 | Clc1cccc(Cl)c1C1ON=C(c2ccccc2)N1C12CC3CC(CC(C3)C1)C2 (stereo not given) | > 100 | 14.5 µM | 
25 | Cc1nnc(Sc2nc(C#N)c(C#N)nc2Sc2nnc(C)s2)s1 | > 200 | 8.13 µM | 
26 | O=Nc1c2cc3ccccc3[nH]c-2c2ccccc12 | > 40.7 | 20.4 µM | 
27 | Oc1ccccc1C=NCCN=Cc1ccccc1O.[CH3][Sn]([CH3])([Cl])[Cl] |  |  | inactive
28 | CC1OC(=O)N(CCCC=C2SCCCS2)C1=O (stereo not given) |  |  | inactive
29 | C=CC1(C)OC2(CCN(C(=O)OCC)CC2)OC1C (stereo not given) | > 200 | 123 µM | 
30 | C=C(Br)CN(C#N)CC(=C)Br | > 200 | > 200 µM | 
31 | CCCCn1c(C)c(C)c2c1NN=C(C#N)S2(=O)=O | > 200 | > 200 µM | 
32 | CC(=O)NNc1nc(C)c(C(/C=C/c2ccc3c(c2)OCO3)=N/Nc2ccccc2)s1 | > 56.2 | > 56.2 µM | 
33 | CC#CCCC1CCCCN(C(=O)OC)C1OCC (stereo not given) | > 933 | 166 µM | 
34 | CC1c2c(Cl)nc3ccccc3c2Oc2c1c(Cl)nc1ccccc21 | > 14.1 | > 14.1 µM | 
35 | CC12CCC3C4CCC(=O)C(CCC(=O)O)=C4CCC3(CO1)C2 (stereo not given) | > 794 | > 794 µM | 
36 | CC1C(=O)N(C)C2(CO)C(=O)O[C@H](C)C12O (stereo not given in full) |  |  | inactive
37 | O=S(=O)(c1ccc(Br)cc1)S(=O)(=O)c1ccc(Br)cc1 | > 11.7 | > 11.7 µM | 
38 | Cc1c(C(=O)CC(=O)C(=O)NC2C3CC4CC(C3)CC2C4)[n+](=O)c2ccccc2n1[O-] (stereo not given) | > 12.3 | > 12.3 µM | 
39 | FC(F)(Sc1nc2ccccc2[nH]1)c1nc2ccccc2o1 | > 200 | > 200 µM | 
40 | O=CC1=C(C(=O)OC(c2ccccc2)c2ccccc2)N2C(=O)[C@@H](NC(=O)Cc3cccs3)[C@H]2SC1 | > 200 | 123 µM | 
41 | O=C1C(c2ccc(Br)cc2)=[N+]([O-])c2ccccc21 |  |  | inactive
42 | CC1CCCN(CCSSCCN2CCCC(C)C2)C1 (stereo not given) | > 200 | 70.8 µM | 
43 | CCCCOB(OCCCC)OCCCC | > 200 | > 200 µM | 
44 | CSC(=S)c1ccc(C(=S)SC)cc1 |  |  | inactive
45 | O=C(Nc1ccccc1)OCCN=C1c2ccccc2CCc2ccccc21 | > 200 | 18.6 µM | 
46 | CCOP(=O)(OCC)C(Nc1cccc(F)c1)c1ccccc1 (stereo not given) | > 200 | 123 µM | 

Row | SMILES | EC50 [µM] | IC50 | outcome
47 | CNC/C(Cl)=N/S(=O)(=O)c1ccc(C)cc1 | > 58.9 | 2.75 µM | 
48 | O=c1[nH]c(=O)n(C2CC(O)C(CO)O2)cc1OCc1ccccc1 (stereo not given) | > 200 | > 200 µM | 
49 | CN1C2CC(=O)CC1[C@H](O)[C@@H]2O | > 200 | > 200 µM | 
50 | COc1cc(C(=O)c2cocc2C(=O)c2ccc3c(c2)OCO3)cc(OC)c1OC |  |  | inactive
51 | C=CCP(=O)(c1ccccc1)c1ccccc1 | 0.0631 | > 200 µM | 
52 | CCOC(=O)C1=C(O)c2ccccc2S(=O)(=O)N1C (tested in a mixture with another compound) | > 123 | 110 µM | 
53 | Cc1ccc(-c2cc(=S)ss2)cc1 | > 200 | 166 µM | 
54 | COc1cccc(N2C(=O)/C(=C/c3ccc(N(CCC#N)CCC#N)cc3)N=C2c2cc([N+](=O)[O-])ccc2Cl)c1 | > 9.33 | > 9.33 µM | 
55 | CN(C)CCC(=O)/C=C\c1ccccc1 |  |  | inactive
56 | N#Cc1c(N)c2c(c(-c3ccccc3)c1-c1ccccc1)C(=O)N(NC(=O)c1ccccc1)C2=O | 75.9 | 102 µM | 
57 | O=C(/C=C/c1c(O)ccc2ccccc12)c1cccc(O)c1 | > 617 | 91.2 µM | 
58 | CCn1c2c(n(CC)c1=S)-c1c(n(CC)c(=S)n1CC)SSSS2 | > 58.9 | > 58.9 µM | 
59 | Cc1ccc2nc(NC(=O)C(=O)C(C(=O)c3ccc4ccccc4c3)C3OC(=O)c4ccccc43)sc2c1 (stereo not given) | > 50.1 | 25.7 µM | 
60 | N#CC(C#N)=c1ccc(=C2NCC3CCCN23)cc1 (stereo not given) |  |  | inactive
61 | COC(=O)[C@H]1C2CC[C@@H]3C45C[C@@H](c6ccoc6)O[C@@H]4O[C@@H](O2)C31CCC5C (stereo not given in full) | > 95.5 | > 95.5 µM | 
62 | CC(=O)OCC1OC(Nc2nncs2)C(OC(C)=O)C1OC(C)=O (stereo not given) | > 692 | 562 µM | 
63 | Cc1ccc(S(=O)(=O)NCCSSCCNS(=O)(=O)c2ccc(C)cc2)cc1 | > 200 | 19.5 µM and 26.9 µM | 
64 | CCc1cccc(CC)c1NC(=S)N/C=C(\C#N)S(=O)(=O)c1ccc(C)cc1 | > 200 | > 200 µM | 
65 | CC(=O)Nc1nc(N)nc(NC(C)=O)c1N=O | > 200 | 30.9 µM | 
66 | COc1cc(C2C(Cl)C(=O)N2n2cnc3ccccc3c2=O)cc(OC)c1OC (stereo not given) | > 6.61 | > 6.61 µM | 
67 | O=c1ccccc2c(/C=C/c3ccccc3)nn(-c3ccccc3)c12 |  |  | inactive
68 | Cc1ccc(SSCCCS(=O)O)cc1 |  |  | inactive
69 | Cc1nccn1Cc1c(N)nc(N)[nH]c1=O | > 200 | > 200 µM | 

Row | SMILES | EC50 [µM] | IC50 | outcome
70 | CCOC(=O)NC(C)(C)CN(CCO)C(=O)OCC | > 200 | > 200 µM | 
71 | C=C(C)C1CC2=C(O1)C(=O)c1cccc(O)c1C2=O (stereo not given) | > 2 | 0.468 µM | 
72 | N#Cc1c2n(c(=S)n(-c3ccccc3)c1=N)CCCCCCC2 | > 200 | 10.7 µM | 
73 | CC(=O)NS(=O)(=O)c1ccc(N=Cc2ccc3c(c2)OCO3)cc1 | > 200 | > 200 µM | 
74 | NC(=O)NN/C=C(/C=Nc1ccccc1)[N+](=O)[O-] | > 105 | > 105 µM | 
75 | O=C1Nc2cc([N+](=O)[O-])ccc2NC1/C(=N\Nc1ccccc1)C(O)c1cccc([N+](=O)[O-])c1 (stereo not given) | > 417 | 47.9 µM | 
76 | O=C1C2CN(Cc3ccccc3)CC1CN(Cc1ccccc1)C2 | > 214 | 141 µM | 
77 | COC1OC(CO)C(N=C(C)C)C1O (stereo not given) | > 200 | > 200 µM | 
78 | CCOP(=O)(OCC)/C(=C\NC(=S)N=Nc1c(O)[nH]c2ccccc12)C(=O)OC | > 200 | 117 µM | 
79 | COP1(=O)OCC(C)(C)CO1 | > 1380 | > 1380 µM | 
80 | O/N=C1\CCc2nonc2\C1=N/Nc1ccccc1 | > 200 | > 200 µM | 
81 | C[C@]12CC[C@H](OC(=O)CCC(=O)O)CC1=CC[C@@H]1C2CC[C@@]2(C)C1CC[C@@H]2c1nc(-c2ccccc2)cs1 (stereo not given in full) | > 46.8 | 17.4 µM | 
82 | O=C(O/N=C1/CCC/C1=C\c1ccccc1)c1ccc([N+](=O)[O-])cc1 |  |  | inactive
83 | Cc1cc(Nc2ccc(S(=O)(=O)O)cc2)c2ccccc2n1 | > 200 | > 200 µM | 
84 | CN(C(=O)c1ccc(Cl)cc1)C(=S)N1CCN(c2ccccn2)CC1 | > 69.2 | 61.7 µM | 
85 | COC(=O)[C@]1(Cc2ccc3ccccc3c2)CCCCCCN1C(=O)c1ccccc1 |  |  | inactive
86 | CC[C@@H]1C2CC3C4N(C)c5ccccc5[C@]45C[C@@H](C2C5O)N3C1O (stereo not given in full) |  |  | inactive
87 | COC(=O)/C=C(/C=C1/C(C#N)=C(N)N(c2ccc(Cl)cc2)C1(C)/C(=C/C(=O)OC)C(=O)OC)C(=O)OC (stereo not given) | > 200 | 23.4 µM | 
88 | COc1cc(/C=C(\C#N)c2ccccc2)cc(OC)c1 | > 19.5 | > 19.5 µM | 
89 | Cc1n[nH]c(=O)n1N1C(=O)CCCC1=O | > 200 | > 200 µM | 
90 | NC(N)=Nc1ccccc1SSc1ccccc1N=C(N)N | 8.13 | 52.5 µM | 
